Results from patent US20240287138A1, “CYCLIC PEPTIDES FOR INHIBITING TNF RECEPTOR 1 ACTIVITY” (Merck Sharp & Dohme LLC, priority 2023, published 2024).
pKd: −log10 of the molar value. Read-outs that look alike come from different tables or passages of the source. Numbered stars: 1 amine (or outer) side, 2 acyl side, 3 side chain; on linkers, the order of the positions; unused ones are H or OH. Bridge positions count the residues as written; N and C are the ends. Square brackets hold non-standard residues; d marks the D form. Peptide text beside a SMILES is read from it. * marks the point of attachment. Trp(βS-Me,7-OMe) = COc1cccc2c([C@H](C)[C@H](N)C(=O)O)c[nH]c12; Phe(4-CH2CH2COOH) = N[C@@H](Cc1ccc(CCC(=O)O)cc1)C(=O)O; Phe(4-SO2NH2) = N[C@@H](Cc1ccc(S(N)(=O)=O)cc1)C(=O)O; Phe(2-F,4-COOH) = N[C@@H](Cc1ccc(C(=O)O)cc1F)C(=O)O; Trp(7-CN) = N#Cc1cccc2c(C[C@H](N)C(=O)O)c[nH]c12; Trp(7-Cl) = N[C@@H](Cc1c[nH]c2c(Cl)cccc12)C(=O)O; Phe(4-CONH2) = NC(=O)c1ccc(C[C@H](N)C(=O)O)cc1; Phe(4-COOH) = N[C@@H](Cc1ccc(C(=O)O)cc1)C(=O)O; Trp(7-aza) = N[C@@H](Cc1c[nH]c2ncccc12)C(=O)O; Pip(5R-OH) = O=C(O)[C@@H]1CC[C@@H](O)CN1; X1 = O=C([C@@H]1CC[C@H](N[*:1])C1)[*:2]; NMeT = CN[C@H](C(=O)O)[C@@H](C)O; 4Pal = N[C@@H](Cc1ccncc1)C(=O)O; NMeE = CN[C@@H](CCC(=O)O)C(=O)O; dHyp = O=C(O)[C@H]1C[C@H](O)CN1; NEtAla = CCN[C@@H](C)C(=O)O; αMeS = C[C@](N)(CO)C(=O)O; Carboxymethyl = O=C(O)C*; Nle = CCCC[C@H](N)C(=O)O; Sar = CNCC(=O)O

Experiments:
[1] = molecular target: T1, human TNFR1 extracellular domain (ECD) protein (Homo sapiens, UniProt P19438); test: SPR binding affinity to captured human TNFR1 ECD
T1 construct: HRV 3C protease cleavage site (C); 6His (C, cleaved yes); made in house; host or cells: Sf21 insect cells (baculovirus), secreted
T1 sequence (P19438 30-211): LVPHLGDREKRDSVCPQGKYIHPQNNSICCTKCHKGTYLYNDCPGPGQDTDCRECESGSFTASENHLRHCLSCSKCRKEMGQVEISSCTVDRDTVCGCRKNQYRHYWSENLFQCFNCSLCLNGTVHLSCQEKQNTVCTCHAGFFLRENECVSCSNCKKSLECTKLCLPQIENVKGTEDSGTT
Method in brief: (§1)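 Biotinylated avi-tagged human TNFR1 or TNFR2 ECD, expressed in Sf21 insect cells, captured on streptavidin SPR chip; peptide analytes run in 10 mM HEPES pH 7.4, 150 mM NaCl, 3 mM EDTA, 0.05% P20, 2% DMSO. kon and koff measured, affinity KA calculated.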

human TNFR2 ECD protein = molecular target: T2, human TNFR2 ECD protein (Homo sapiens, UniProt P20333); test: SPR off-target binding (selectivity) to human TNFR2 ECD
T2 construct: HRV 3C protease cleavage site (C); 6His (C, cleaved yes); made in house; host or cells: Sf21 insect cells (baculovirus), secreted
T2 sequence (P20333 23-257): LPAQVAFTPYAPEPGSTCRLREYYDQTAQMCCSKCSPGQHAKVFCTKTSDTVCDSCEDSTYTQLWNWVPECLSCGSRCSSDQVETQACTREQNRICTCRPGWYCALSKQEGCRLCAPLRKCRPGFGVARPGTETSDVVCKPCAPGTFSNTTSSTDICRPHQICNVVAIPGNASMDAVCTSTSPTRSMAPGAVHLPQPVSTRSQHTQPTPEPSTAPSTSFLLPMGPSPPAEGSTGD
Method in brief: as §1

[2] = molecular target: T3, human soluble TNFR1 (sTNFR1) (Homo sapiens, UniProt P19438); test: Human sTNFR1-peptide displacement assay (LanthaScreen Eu TR-FRET binding assay)
T3 construct: made in house; host or cells: Sf21 (baculovirus)
T3 sequence (P19438 with tags, fused parts or gaps): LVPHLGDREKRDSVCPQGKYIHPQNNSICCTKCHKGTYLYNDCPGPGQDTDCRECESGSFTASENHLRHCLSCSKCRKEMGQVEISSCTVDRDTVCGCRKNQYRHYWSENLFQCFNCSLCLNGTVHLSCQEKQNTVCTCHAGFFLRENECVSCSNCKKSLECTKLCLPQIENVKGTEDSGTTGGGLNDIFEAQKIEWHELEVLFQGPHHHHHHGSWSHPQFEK
Method in brief: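 Readout is the 665/615 nm TR-FRET ratio (Eu anti-His donor, streptavidin-Alexa647 acceptor), normalized to DMSO and saturating displacer, fit by Morrison-based five-parameter logistic for Kd^app. His-tagged sTNFR1 (1-211) prebound to 100 nM biotinylated peptide SEQ ID NO.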

[3] = biotinylated human TNFR1 ECD on streptavidin chip, from kon and koff, read-out: SPR hTNFR1 KD
[4] = biotinylated human TNFR2 ECD on streptavidin chip, read-out: SPR hTNFR2 KD
[5] = displacement of biotinylated peptide SEQ ID NO. 1 from sTNFR1, 20 point titration, 5-parameter fit based on Morrison equation (tight binding), read-out: TR-FRET Kd^app

## CCCC[C@@H]1NC(=O)CSC[C@@H](C(N)=O)NC(=O)[C@H]([C@@H](C)c2c[nH]c3c(OC)cccc23)NC(=O)CN(C)C(=O)[C@H](Cc2ccc(O)cc2)NC(=O)[C@H](Cc2ccc(C(=O)O)cc2)NC(=O)[C@](C)(CO)NC(=O)[C@H](Cc2c[nH]c3c(Cl)cccc23)NC(=O)[C@H](Cc2ccncc2)NC(=O)[C@H](CC(N)=O)NC(=O)[C@H](CCC(=O)O)N(C)C(=O)[C@H](Cc2c[nH]c3ncccc23)NC(=O)[C@H]([C@@H](C)O)N(C)C(=O)[C@H](Cc2ccncc2)NC1=O [SEQ ID NO. 29] ({CH2CO}-[Nle][4Pal][NMeT][Trp(7-aza)][NMeE]N[4Pal][Trp(7-Cl)][αMeS][Phe(4-COOH)]Y[Sar][Trp(βS-Me,7-OMe)]C-NH2; thioether N-14)
[1]
  pKd: 9.55
Human TNFR2 ECD protein
  pKd: < 6.00
[2]
  pKd: 9.19

## CCCC[C@@H]1NC(=O)[C@@H]2CC[C@@H](C2)NC(=O)[C@H]([C@@H](C)c2c[nH]c3c(OC)cccc23)NC(=O)CN(C)C(=O)[C@H](Cc2ccc(CCC(=O)O)cc2)NC(=O)[C@H](Cc2ccc(S(N)(=O)=O)cc2)NC(=O)[C@](C)(CO)NC(=O)[C@H](Cc2c[nH]c3c(C#N)cccc23)NC(=O)[C@H](Cc2ccc(OCC(=O)O)cc2)NC(=O)[C@H](CC(N)=O)NC(=O)[C@H]2C[C@H](O)CN2C(=O)[C@H](Cc2c[nH]c3ncccc23)NC(=O)[C@@H]2CC[C@@H](O)CN2C(=O)[C@H](Cc2ccncc2)NC1=O [SEQ ID NO. 30] (cyclo([4Pal][Pip(5R-OH)][Trp(7-aza)][dHyp]NY(Carboxymethyl)[Trp(7-CN)][αMeS][Phe(4-SO2NH2)][Phe(4-CH2CH2COOH)][Sar][Trp(βS-Me,7-OMe)][X1][Nle]))
[1]; [3]
  pKd: 10.30
Human TNFR2 ECD protein; [4]
  pKd: < 6.00
[2]; [5]
  pKd: 10.15

## CCCC[C@@H]1NC(=O)CSC[C@@H](C(N)=O)NC(=O)[C@H]([C@@H](C)c2c[nH]c3c(OC)cccc23)NC(=O)CN(C)C(=O)[C@H](Cc2ccc(O)cc2)NC(=O)[C@H](Cc2ccc(C(=O)O)cc2)NC(=O)[C@](C)(CO)NC(=O)[C@H](Cc2c[nH]c3c(Cl)cccc23)NC(=O)[C@H](Cc2ccncc2)NC(=O)[C@H](CC(N)=O)NC(=O)[C@H](CCC(=O)O)N(C)C(=O)[C@H](Cc2c[nH]c3ncccc23)NC(=O)[C@H](C)N(CC)C(=O)[C@H](Cc2ccncc2)NC1=O [SEQ ID NO. 38] ({CH2CO}-[Nle][4Pal][NEtAla][Trp(7-aza)][NMeE]N[4Pal][Trp(7-Cl)][αMeS][Phe(4-COOH)]Y[Sar][Trp(βS-Me,7-OMe)]C-NH2; thioether N-14)
[1]
  pKd: 9.47
Human TNFR2 ECD protein
  pKd: < 6.00
[2]
  pKd: 9.15

## CCCC[C@@H]1NC(=O)[C@@H]2CC[C@@H](C2)NC(=O)[C@H]([C@@H](C)c2c[nH]c3c(OC)cccc23)NC(=O)CN(C)C(=O)[C@H](Cc2ccc(C(=O)O)cc2F)NC(=O)[C@H](Cc2ccc(C(N)=O)cc2)NC(=O)[C@](C)(CO)NC(=O)[C@H](Cc2c[nH]c3c(Cl)cccc23)NC(=O)[C@H](Cc2ccc(C(=O)O)cc2F)NC(=O)[C@H](CC(N)=O)NC(=O)[C@H]2C[C@H](O)CN2C(=O)[C@H](Cc2c[nH]c3ccccc23)NC(=O)[C@@H]2CC[C@@H](O)CN2C(=O)[C@H](Cc2ccncc2)NC1=O [SEQ ID NO. 41] (cyclo([4Pal][Pip(5R-OH)]W[dHyp]N[Phe(2-F,4-COOH)][Trp(7-Cl)][αMeS][Phe(4-CONH2)][Phe(2-F,4-COOH)][Sar][Trp(βS-Me,7-OMe)][X1][Nle]))
[1]
  pKd: 9.92
Human TNFR2 ECD protein
  pKd: < 6.00
[2]
  pKd: 10.15

## CCCC[C@@H]1NC(=O)[C@@H]2CC[C@@H](C2)NC(=O)[C@H]([C@@H](C)c2c[nH]c3c(OC)cccc23)NC(=O)CN(C)C(=O)[C@H](Cc2ccc(C(N)=O)cc2)NC(=O)[C@H](Cc2ccc(C(N)=O)cc2)NC(=O)[C@](C)(CO)NC(=O)[C@H](Cc2c[nH]c3c(C#N)cccc23)NC(=O)[C@H](Cc2ccc(C(=O)O)cc2)NC(=O)[C@H](CC(N)=O)NC(=O)[C@H]2C[C@H](O)CN2C(=O)[C@H](Cc2c[nH]c3ccccc23)NC(=O)[C@@H]2CC[C@@H](O)CN2C(=O)[C@H](Cc2ccncc2)NC1=O [SEQ ID NO. 45] (cyclo([4Pal][Pip(5R-OH)]W[dHyp]N[Phe(4-COOH)][Trp(7-CN)][αMeS][Phe(4-CONH2)][Phe(4-CONH2)][Sar][Trp(βS-Me,7-OMe)][X1][Nle]))
[1]; [3]
  pKd: 11.00
Human TNFR2 ECD protein; [4]
  pKd: < 6.00
[2]; [5]
  pKd: 10.30
